The values below come from patent publication US20080319065A1, “Systemic and Intrathecal Effects of a Novel Series of Phospholipase A2 Inhibitors on Hyperalgesia and Spinal Pge2 Release” (The Regents of the University of California, priority 2005, published 2008).

Common to all, as to format: biochemical
Experiment [1] concerns the target T1, Group VIA iPLA2 (GVIA PLA2) (Homo sapiens, UniProt O60733).
T1 sequence (O60733 1-806): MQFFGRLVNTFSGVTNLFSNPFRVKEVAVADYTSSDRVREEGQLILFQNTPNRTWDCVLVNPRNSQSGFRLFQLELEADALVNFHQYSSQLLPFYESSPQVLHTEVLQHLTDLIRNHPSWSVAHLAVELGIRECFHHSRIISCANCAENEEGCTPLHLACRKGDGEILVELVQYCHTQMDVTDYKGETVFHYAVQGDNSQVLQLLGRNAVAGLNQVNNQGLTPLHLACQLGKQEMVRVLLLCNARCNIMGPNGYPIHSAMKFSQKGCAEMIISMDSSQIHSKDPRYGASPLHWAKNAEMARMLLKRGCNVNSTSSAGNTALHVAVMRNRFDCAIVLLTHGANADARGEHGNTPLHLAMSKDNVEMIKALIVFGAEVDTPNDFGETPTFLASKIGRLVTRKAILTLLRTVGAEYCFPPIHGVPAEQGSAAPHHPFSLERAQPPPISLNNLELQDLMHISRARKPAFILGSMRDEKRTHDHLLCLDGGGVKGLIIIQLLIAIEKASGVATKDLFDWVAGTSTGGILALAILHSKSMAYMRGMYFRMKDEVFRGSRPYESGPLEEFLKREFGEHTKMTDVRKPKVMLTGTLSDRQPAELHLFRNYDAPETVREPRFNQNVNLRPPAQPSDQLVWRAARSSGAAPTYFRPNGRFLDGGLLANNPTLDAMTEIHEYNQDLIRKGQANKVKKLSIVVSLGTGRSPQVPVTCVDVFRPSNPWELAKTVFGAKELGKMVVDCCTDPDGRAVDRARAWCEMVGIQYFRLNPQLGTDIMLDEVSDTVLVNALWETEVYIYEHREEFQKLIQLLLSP
The experiment is described as follows: In vitro Group VIA iPLA2 mixed micelle assay. Conditions: for inhibition at 0.091 mole fraction: read-out: iPLA2 inh, percent inhibition; for iPLA2 inh, XI(50): Table 3; for Inhibition of GVIA PLA2: at highest dose. Here is the method:
(§1) Numerous 2-oxoamides were tested for inhibition of PLA2s in in vitro assay systems. The data, summarized in Tables 1a, 1b and 2 are represented as XI(50) values unless otherwise noted. XI(50) is defined as the inhibitor concentration that produced 50% inhibition. XI(50) is used as opposed to the more common IC50 because GIVA and GVIA PLA2 are active at a two-dimensional lipid interface rather than in three-dimensional solution. (Deems, Anal. Biochem., 287:1-16, 2000). The 2-oxoamide inhibitors likely partition to the micelle interface and therefore must be represented as a percentage of surface concentration (mole fraction) as opposed to bulk concentration (molar units). (Kokotos, et al., J. Med. Chem., 45:2891-2893, 2002).
(§2) In vitro Group IV cPLA2 and Group VI iPLA2 assays were done as previously described (Kokotos, et al., supra, 2002). Briefly, 100 μM lipid substrate and 100,000 cpm radiolabeled analog were dried down under N2 and dissolved in assay buffer containing 400 μM Triton X-100 to yield a mixed micelle substrate solution. Inhibitors dissolved in DMSO were added to the reaction tubes and allowed to incubate with substrate for five minutes at 40° C. Pure enzyme was added to yield a final volume of 500 μl, and digestion was carried out at 40° C. for 30 minutes. Reactions were quenched and extracted using the Dole method and products were quantified by liquid scintillation counting. Percent inhibition was determined at a range of inhibitor mole fraction concentrations for XI(50) calculations.

The target in experiment [2] is T2, Group IVA cPLA2 (GIVA PLA2) (Homo sapiens, UniProt P47712).
T2 sequence (P47712 1-749): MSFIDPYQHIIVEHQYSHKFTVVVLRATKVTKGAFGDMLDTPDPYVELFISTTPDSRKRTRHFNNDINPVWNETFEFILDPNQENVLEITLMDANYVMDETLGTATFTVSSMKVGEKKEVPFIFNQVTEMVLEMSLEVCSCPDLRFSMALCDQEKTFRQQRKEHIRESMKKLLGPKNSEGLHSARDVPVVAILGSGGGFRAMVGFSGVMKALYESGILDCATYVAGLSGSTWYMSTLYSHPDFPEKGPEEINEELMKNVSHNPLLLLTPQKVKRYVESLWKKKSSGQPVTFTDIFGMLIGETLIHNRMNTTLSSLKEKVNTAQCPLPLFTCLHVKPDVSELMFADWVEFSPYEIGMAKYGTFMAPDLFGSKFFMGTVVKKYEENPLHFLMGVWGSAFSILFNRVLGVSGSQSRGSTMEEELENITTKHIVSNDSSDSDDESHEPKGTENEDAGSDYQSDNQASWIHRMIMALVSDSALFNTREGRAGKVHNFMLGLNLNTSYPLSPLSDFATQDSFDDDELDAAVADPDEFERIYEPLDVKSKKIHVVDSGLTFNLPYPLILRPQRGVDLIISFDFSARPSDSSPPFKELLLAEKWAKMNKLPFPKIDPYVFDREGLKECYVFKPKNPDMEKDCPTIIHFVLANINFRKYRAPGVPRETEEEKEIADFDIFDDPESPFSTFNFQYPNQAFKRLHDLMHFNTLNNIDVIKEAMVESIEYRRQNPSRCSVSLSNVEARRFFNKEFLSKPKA
The experiment is described as follows: In vitro Group IVA cPLA2 mixed micelle assay. Particulars: for inhibition at 0.091 mole fraction: read-out: cPLA2 inh, percent inhibition (converted); for cPLA2 inh, XI(50): Table 3; for Inhibition of GIVA PLA2: at highest dose. Here is the method: as §1, §2

The target of experiment [3] is T3, GV sPLA2 (Homo sapiens, UniProt P39877).
T3 sequence (P39877 21-138): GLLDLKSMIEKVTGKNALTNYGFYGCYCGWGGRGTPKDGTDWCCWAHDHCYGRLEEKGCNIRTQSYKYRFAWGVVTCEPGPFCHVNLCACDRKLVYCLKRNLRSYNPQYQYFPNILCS
The experiment is described as follows: GV sPLA2 activity assay. Particulars: for inhibition at 0.091 mole fraction: read-out: sPLA2 inh., percent inhibition; for efficacy against sPLA2: at 0.091 mole fraction. Here is the method: GV sPLA2 activity was measured in a similar assay. The final assay buffer was composed of 50 mM Tris-HCl (pH 8.0) and 5 mM CaCl2. Each assay was performed in 500 μL total volume made up of 100 μL of 5× substrate solution (20 μL of 10 mM Triton X-100 and 80 μL assay buffer), 390 μL assay buffer, 10 μL GV sPLA2 solution (1 μL of 40 ng/μL stock and 9 μL assay buffer), and 5 μL of DMSO or 2-oxoamide in DMSO. The 5× substrate solution was prepared by drying down the phospholipids (in organic solvent) with N2. The appropriate volume of 10 mM Triton X-100 was added, heated and vortexed until clear. Then assay buffer was added to make a 5× substrate solution. The final mixed micelles were at 400 μM Triton X-100 and 100 μM DPPC (of which 100,000 cpm of ^14C-DPPC).

Entries after “also recorded” stand apart in the source; their conditions may differ.

A word on the inhibition: it is how much of the control response was suppressed. For the compound `CCC[C@H](NC(=O)C(=O)CC)C(=O)NCC(=O)OCC` [AX127], the inhibition at 0.091 mole fraction in experiment [1] is 93.9%; in experiment [2] it was 72.6%; in experiment [3], 63.1%.
As for `CCOC(=O)CCCNC(=O)C(=O)CCc1ccc(OCC)cc1` [AX090], the values for the inhibition at 0.091 mole fraction in experiment [1] and in experiment [3] were 67.3% and 51.7%, respectively. In addition, in experiment [2], the “cPLA2 inh, XI(50)” value was “XI(50) =0.050 ± .002 mole fraction”.
Regarding `CCCC[C@H](NC(=O)C(=O)CC)C(=O)NCC(=O)OC(C)(C)C` [AX121], the inhibition at 0.091 mole fraction was 89.6% in experiment [1], 72% in experiment [2] and 58.5% in experiment [3].
Regarding `CCOC(=O)c1ccc(NC(=O)C(=O)CC)cc1` [AX091], the figures for the inhibition at 0.091 mole fraction in experiment [1] and in experiment [3] were 14.3% and 66.5%, respectively. In addition, in experiment [2], the “cPLA2 inh, XI(50)” value is on record as “XI(50) =0.029 ± .016 mole fraction”.
Take `CC/C=C\CC(=O)C(=O)NCCCC(=O)OC(C)(C)C` [AX055]: in experiment [1], the “iPLA2 inh, XI(50)” value is “XI(50) =0.054 ± .004 mole fraction”. Besides, the “cPLA2 inh, XI(50)” value in experiment [2] was “XI(50) =0.014 ± .009 mole fraction”. For the same compound, the inhibition at 0.091 mole fraction in experiment [3] turned out to be 85.3%.
As to `CCNC(=O)C(=O)CC` [AX009], in experiment [1], the “inhibition of GVIA PLA2 (iPLA2), in words” value was “limited inhibition of GVIA PLA2” and the “Inhibition of GVIA PLA2” value is listed as “LD (limited inhibition (25-50%) at highest dose)”. Moreover, in experiment [2], the “inhibition of GIVA PLA2 (cPLA2), in words” value was “no detectable inhibition of GIVA PLA2” and the “Inhibition of GIVA PLA2” value is recorded as “ND (negligible inhibition (0-25%) at highest dose)”.
Consider `CCC[C@@H](CCCCC(=O)OCC)NC(=O)C(=O)CC` [AX065], for which, in experiment [1], the “iPLA2 inh, XI(50)” value is given as “XI(50) =0.054 ± .016 mole fraction”. Besides, the inhibition at 0.091 mole fraction in experiment [2] was 61.8%; in experiment [3], 23.2%.
On to `CCC(=O)C(=O)NCCC(=O)OC(C)(C)C` [AX113], for which the inhibition at 0.091 mole fraction was 54% in experiment [1], 79.2% in experiment [2] and 100% in experiment [3]. The “efficacy against sPLA2” value in experiment [3] is recorded as “about 100%”.
As to `CCOC(=O)CCCCNC(=O)C(=O)CC` [AX102], the inhibition at 0.091 mole fraction in experiment [1] was 35.3%; in experiment [2], 30.6%; in experiment [3] it was 47.1%.
For `CCNC(=O)C(=O)CC` [AX002], in experiment [1], the “inhibition of GVIA PLA2 (iPLA2), in words” value is listed as “limited inhibition of GVIA PLA2” and the “Inhibition of GVIA PLA2” value is on record as “LD^b (limited inhibition (25-50%) at highest dose)”. In addition, in experiment [2], the “inhibition of GIVA PLA2 (cPLA2), in words” value is given as “no detectable inhibition of GIVA PLA2” and the “Inhibition of GIVA PLA2” value is “ND (negligible inhibition (0-25%) at highest dose)”.
With `CCC[C@@H](/C=C/C(=O)OCC)NC(=O)C(=O)CC` [AX093], the inhibition at 0.091 mole fraction is 66.5% in experiment [1] and 78.3% in experiment [3]. For the same compound, in experiment [2], the “cPLA2 inh, XI(50)” value is “XI(50) =0.031 ± .011 mole fraction”.
As for `CCCC[C@@H](COCC(=O)OC(C)(C)C)NC(=O)C(=O)CC` [AX122], the figures for the inhibition at 0.091 mole fraction in experiment [1], in experiment [2] and in experiment [3] were 81%, 43.6% and 57.2%, respectively.
For `CCC[C@@H](COCC(=O)OCC)NC(=O)C(=O)CC` [AX128], the inhibition at 0.091 mole fraction in experiment [1] is 92.8%; in experiment [2] it was 52.3%; in experiment [3] it was 80.6%.
For `C=CCOC(=O)CCCNC(=O)C(=O)CC` [AX126] the same measures were 63.2%, 52.9% and 37.9%.
`CCOCCCCNC(=O)C(=O)CC` [AX081]: the inhibition at 0.091 mole fraction in experiment [1] is 50.9%; in experiment [3], 76.5%. In addition, the “cPLA2 inh, XI(50)” value in experiment [2] was “XI(50) =0.018 ± .016 mole fraction”.
As for `CCC(=O)C(=O)NCCCC(=O)OCc1ccccc1` [AX116], the inhibition at 0.091 mole fraction was 10.7% in experiment [1], 34.8% in experiment [2] and 57.5% in experiment [3].
For `CC/C=C\CC(=O)C(=O)NCCCC(=O)OCC` [AX110] the same measures were 52.8%, 69.9% and 96.6%.
With `NC(=O)C(=O)CCCCc1ccccc1` [AX015], in experiment [1], the “inhibition of GVIA PLA2 (iPLA2), in words” value is recorded as “neither exhibits significant inhibition; also recorded: no significant activity” and the “Inhibition of GVIA PLA2” value is reported as “ND (negligible inhibition (0-25%) at highest dose)”. In experiment [2], the “inhibition of GIVA PLA2 (cPLA2), in words” value is on record as “neither exhibits significant inhibition; also recorded: no significant activity” and the “Inhibition of GIVA PLA2” value is given as “ND (negligible inhibition (0-25%) at highest dose)”. Further, the “efficacy against sPLA2” value in experiment [3] is 45.3%.
As for `CCCCC(=O)CCCNC(=O)C(=O)CC` [AX082], the inhibition at 0.091 mole fraction in experiment [2] is 31.8%; in experiment [3], 7.4%.
On to `CCOC(=O)CNC(=O)C(=O)CC` [AX114], for which the results for the inhibition at 0.091 mole fraction in experiment [1], in experiment [2] and in experiment [3] were 61.6%, 73.7% and 99.8%, respectively.
In the same order, the values of `CCC(=O)C(=O)NCCCCC(=O)OC(C)(C)C` [AX105] are 61.7%, 73.8% and 96.3%.
With `CCC(=O)C(N)=O` [AX001], in experiment [1], the “inhibition of GVIA PLA2 (iPLA2), in words” value is “neither exhibits significant inhibition” and the “Inhibition of GVIA PLA2” value is recorded as “ND^a (negligible inhibition (0-25%) at highest dose)”. Besides, in experiment [2], the “inhibition of GIVA PLA2 (cPLA2), in words” value is given as “neither exhibits significant inhibition” and the “Inhibition of GIVA PLA2” value was “ND (negligible inhibition (0-25%) at highest dose)”.
Turning to `CCC(=O)C(=O)NCC(=O)OC(C)(C)C` [AX111], the inhibition at 0.091 mole fraction was 53.1% in experiment [1], 79.6% in experiment [2] and 95.9% in experiment [3].
